Source: patent publication US20180085373A1, “THERAPEUTIC AND/OR PROPHYLACTIC AGENT FOR LEWY BODY DISEASE” (KYOWA HAKKO KIRIN CO., LTD., priority 2015, published 2018)

Tests used:
Slc:ICR mice [1] = assay: Spontaneous alternation task test (Y-maze), evaluation of cognitive function in NAC61-95 α-synucleinopathy model; type: in vivo; settings: NAC61-95-treated mice
Procedure: (§1) By reference to articles (Science, 338, p. 949 (2012); Behavioral Brain Research, 208, p. 274 (2010)), an animal model capable of confirming a therapeutic and/or prophylactic effect on α-synucleinopathy (for example, Lewy body disease, the Lewy body disease includes cognitive impairment in Parkinson's disease, diffuse Lewy body disease, dementia with Lewy bodies, movement disorder associated with Lewy body disease and the like) was prepared as follows.
(§2) The cognitive function was evaluated using a spontaneous alternation task. The spontaneous alternation task is known as an evaluation system of cognitive function utilizing properties of an animal to willingly explore a novel environment (Neuroscience and Biobehavioral Reviews 28, p. 497 (2004)). That is, if the animal remembers the arm into which it entered previously in an exploration in a Y-maze apparatus, the behavior of spontaneous entry into a different arm was expressed by an alternation behavior rate, and used as an index of cognitive function. The motor function was evaluated by analyzing gait function under natural walk conditions using a gait function/automatic gait analysis system.
(§3) NAC61-95 (custom, Sigma) was dissolved in PBS to prepare 4 μg/μL NAC61-95 solution.
Under pentobarbital (Somnopentyl, Kyoritsuseiyaku) (50 mg/kg, i.p.) anesthesia, 5 μL of NAC61-95 solution was injected using a Hamilton syringe (10 μL) equipped with a double needle (27G, needle length 3 mm) into the right lateral cerebral ventricle of Slc:ICR mice (male, Japan SLC) over about 1 minute, and stood for 1 minute to induce cognitive impairment and/or movement disorder. […]
Mice were brought into the experiment room from the previous day of test for habituation. […] Entry of all four limbs of a mouse into one arm was defined as entry into the arm, and the order of entry of the mouse into the arm was recorded. A behavior of successive entry into all three different arms was defined as spontaneous alternation behavior, and the percentage of alternation behavior was calculated by the following calculation formula. […]

Slc:ICR mice [2] = assay: Gait test (CatWalk XT), evaluation of motor function in NAC61-95 α-synucleinopathy model; type: in vivo; settings: NAC61-95-treated mice
Procedure: as §1, §2, §3
Under pentobarbital (Somnopentyl, Kyoritsuseiyaku) (50 mg/kg, i.p.) anesthesia, 5 μL of NAC61-95 solution was injected using a Hamilton syringe (10 μL) equipped with a double needle (27G, needle length 3 mm) into the right lateral cerebral ventricle of Slc:ICR mice (male, Japan SLC) over about 1 minute, and stood for 1 minute to induce cognitive impairment and/or movement disorder.
As for a sham treatment group, under pentobarbital anesthesia, 5 μL of PBS was injected using a Hamilton syringe equipped with a double needle into the right lateral cerebral ventricle of Slc:ICR mice over about 1 minute, and stood for 1 minute.
A gait function/automatic gait analysis system (CatWalk XT, ver.9.1, Noldus) was used. The system consisted of a walkway with pressure-sensitive luminescent glass and a light source, a luminescent ceiling, a highly sensitive high-speed camera and an analysis software, and the gait was analyzed by digitizing the brightness of the light emitted by the pressure-sensitive luminescent glass in response to the pressure. The gait data was automatically recorded and analyzed by the analysis software only when a mouse moved straight forward without stopping in the predetermined area on the walkway.
The mice were brought into the experiment room with light off and habituated for not less than 1 hour. A mouse was placed in the apparatus, and allowed to walk freely until 6 running data were obtained for each individual. The first three running data amenable to analyze were taken up, and their mean was calculated.
At 60 minutes before the test, istradefylline (suspended in 0.5 w/v % aqueous MC solution, and prepared to 0.5 mL per 100 g body weight of a mouse on the administration day) was orally administered at a dose of 1.0 mg/kg, or a vehicle (0.5 w/v % aqueous MC solution) free of the test compound was orally administered at 0.5 mL per 100 g body weight of a mouse on the administration day.

[3] = 1.0 mg/kg orally 60 minutes before the test, mean±standard error

CCn1c(=O)c2c(nc(/C=C/c3ccc(OC)c(OC)c3)n2C)n(CC)c1=O [istradefylline]
cognitive impairment by NAC61-95 treatment (Slc:ICR mice [1]; 1.0 mg/kg orally): improved | alternation behavior (%) (Slc:ICR mice [1]; [3]): 66.4 ± 1.4% | alternation behavior as compared to the vehicle administration group (Slc:ICR mice [1]; 1.0 mg/kg orally, p<0.05, Aspin-Welch test): significantly high | gait pattern (mean) AA (Slc:ICR mice [2]; AA: right forepaw→right hindpaw→left forepaw→left hindpaw, 1.0 mg/kg orally, mean±standard error): 4.3 ± 2.8 | gait pattern (mean) AB (Slc:ICR mice [2]; AB: right forepaw→left hindpaw→left forepaw→right hindpaw, 1.0 mg/kg orally, mean±standard error): 76.7 ± 7.1 | gait pattern (mean) CA (Slc:ICR mice [2]; CA: right forepaw→left forepaw→right hindpaw→left hindpaw, 1.0 mg/kg orally, mean±standard error): 10.3 ± 3.6 | gait pattern (mean) CB (Slc:ICR mice [2]; CB: right forepaw→left hindpaw→right hindpaw→left forepaw, 1.0 mg/kg orally, mean±standard error): 8.7 ± 4.3 | change in gait pattern CB (Slc:ICR mice [2]; 1.0 mg/kg orally): decreased | improvement ratio, gait pattern CB (Slc:ICR mice [2]; 1.0 mg/kg orally): 100% | improvement ratio, maximum brightness ratio of the left hindpaw (Slc:ICR mice [2]; 1.0 mg/kg orally): 111% | movement disorder induced by NAC61-95 treatment (Slc:ICR mice [2]; 1.0 mg/kg orally): improved | maximum brightness ratio, left forepaw (Slc:ICR mice [2]; [3]): 51.5 ± 1.8 | maximum brightness ratio, left hindpaw (Slc:ICR mice [2]; [3]): 65.3 ± 1.7 | maximum brightness ratio, right forepaw (Slc:ICR mice [2]; [3]): 52.5 ± 2.4 | maximum brightness ratio, right hindpaw (Slc:ICR mice [2]; [3]): 61.9 ± 2.4 | print area, left forepaw (Slc:ICR mice [2]; [3]): 0.35 ± 0.02 | print area, left hindpaw (Slc:ICR mice [2]; [3]): 0.38 ± 0.04 | print area, right forepaw (Slc:ICR mice [2]; [3]): 0.33 ± 0.03 | print area, right hindpaw (Slc:ICR mice [2]; [3]): 0.38 ± 0.04 | change in the maximum brightness ratio of the left hindpaw (Slc:ICR mice [2]; 1.0 mg/kg orally, p<0.05, Student's t-test): significant increase | gait pattern (median) AA (Slc:ICR mice [2]; median, 1.0 mg/kg orally): 0.0 | gait pattern (median) AB (Slc:ICR mice [2]; median, 1.0 mg/kg orally): 84.6 | gait pattern (median) CA (Slc:ICR mice [2]; median, 1.0 mg/kg orally): 6.7 | gait pattern (median) CB (Slc:ICR mice [2]; median, 1.0 mg/kg orally): 0.0
